Experimental data published in ChEMBL document CHEMBL2177014 (J Med Chem, 2012).
Counter-ions that a name gives are not always drawn.

How the values were obtained:
[1] = molecular target: Glutamate receptor ionotropic, NMDA 2B (Rattus norvegicus, UniProt Q00960); experiment: Displacement of [3H]Ifenprodil from NMDAR-2B in Sprague-Dawley rat frontal cortex homogenates after 2 hrs by liquid scintillation counting; format: tissue-based
[2] = Lipophilicity, log P of the compound; format: physicochemical; settings: octanol/water
[3] = molecular target: T1, Acetylcholinesterase (Rattus norvegicus, UniProt P37136); experiment: biochemical
T1 sequence (P37136 whole entry): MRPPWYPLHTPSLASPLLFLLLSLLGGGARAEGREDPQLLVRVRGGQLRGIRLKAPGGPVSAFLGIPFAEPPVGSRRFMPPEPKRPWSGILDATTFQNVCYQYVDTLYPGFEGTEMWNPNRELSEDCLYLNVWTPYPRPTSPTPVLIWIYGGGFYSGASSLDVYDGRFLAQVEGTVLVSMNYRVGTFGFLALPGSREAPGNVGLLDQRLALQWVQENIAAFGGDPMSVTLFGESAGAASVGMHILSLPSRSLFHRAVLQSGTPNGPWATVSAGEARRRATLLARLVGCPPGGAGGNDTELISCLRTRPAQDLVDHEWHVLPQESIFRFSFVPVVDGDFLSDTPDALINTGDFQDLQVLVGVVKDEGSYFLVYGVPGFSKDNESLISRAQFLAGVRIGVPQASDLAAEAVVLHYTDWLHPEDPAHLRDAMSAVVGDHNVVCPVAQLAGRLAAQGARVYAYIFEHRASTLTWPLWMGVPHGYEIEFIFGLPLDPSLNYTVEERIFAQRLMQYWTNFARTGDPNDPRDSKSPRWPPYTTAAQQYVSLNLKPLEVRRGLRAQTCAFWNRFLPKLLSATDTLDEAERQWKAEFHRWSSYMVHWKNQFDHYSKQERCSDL
Description: Inhibition of AChE in Wistar rat brain homogenates using acetylthiocholine iodide and DTNB as substrate after 10 mins by Ellman method

[4] = Displacement of [3H]MK-801 from NMDAR in Sprague-Dawley rat cerebral cortex homogenates after 2 hrs by liquid scintillation counting; format: tissue-based
[5] = tested on: SH-SY5Y; experiment: Neuroprotective activity in human SH-SY5Y cells assessed as protection against NMDA-induced cell death after 6 hrs by MTS assay; format: functional, cell-based
[6] = organism: Rattus norvegicus; experiment: Displacement of [3H]MK-801 from NMDAR in Sprague-Dawley rat cerebral cortex homogenates at 10 uM after 2 hrs by liquid scintillation counting; format: tissue-based
[7] = molecular target: T2, Acetylcholinesterase (Rattus norvegicus) (UniProt P37136); experiment: Inhibition of AChE in Wistar rat brain homogenates using acetylthiocholine iodide and DTNB as substrate at 10 uM after 10 mins by Ellman method; format: tissue-based
T2 sequence (whole entry): T1 sequence (P37136 whole entry)

[8] = Binding affinity to NMDAR in Sprague-Dawley rat cerebral cortex homogenates; format: tissue-based

Chain of Glutamate receptor ionotropic, NMDA 2B (Q00960 whole entry): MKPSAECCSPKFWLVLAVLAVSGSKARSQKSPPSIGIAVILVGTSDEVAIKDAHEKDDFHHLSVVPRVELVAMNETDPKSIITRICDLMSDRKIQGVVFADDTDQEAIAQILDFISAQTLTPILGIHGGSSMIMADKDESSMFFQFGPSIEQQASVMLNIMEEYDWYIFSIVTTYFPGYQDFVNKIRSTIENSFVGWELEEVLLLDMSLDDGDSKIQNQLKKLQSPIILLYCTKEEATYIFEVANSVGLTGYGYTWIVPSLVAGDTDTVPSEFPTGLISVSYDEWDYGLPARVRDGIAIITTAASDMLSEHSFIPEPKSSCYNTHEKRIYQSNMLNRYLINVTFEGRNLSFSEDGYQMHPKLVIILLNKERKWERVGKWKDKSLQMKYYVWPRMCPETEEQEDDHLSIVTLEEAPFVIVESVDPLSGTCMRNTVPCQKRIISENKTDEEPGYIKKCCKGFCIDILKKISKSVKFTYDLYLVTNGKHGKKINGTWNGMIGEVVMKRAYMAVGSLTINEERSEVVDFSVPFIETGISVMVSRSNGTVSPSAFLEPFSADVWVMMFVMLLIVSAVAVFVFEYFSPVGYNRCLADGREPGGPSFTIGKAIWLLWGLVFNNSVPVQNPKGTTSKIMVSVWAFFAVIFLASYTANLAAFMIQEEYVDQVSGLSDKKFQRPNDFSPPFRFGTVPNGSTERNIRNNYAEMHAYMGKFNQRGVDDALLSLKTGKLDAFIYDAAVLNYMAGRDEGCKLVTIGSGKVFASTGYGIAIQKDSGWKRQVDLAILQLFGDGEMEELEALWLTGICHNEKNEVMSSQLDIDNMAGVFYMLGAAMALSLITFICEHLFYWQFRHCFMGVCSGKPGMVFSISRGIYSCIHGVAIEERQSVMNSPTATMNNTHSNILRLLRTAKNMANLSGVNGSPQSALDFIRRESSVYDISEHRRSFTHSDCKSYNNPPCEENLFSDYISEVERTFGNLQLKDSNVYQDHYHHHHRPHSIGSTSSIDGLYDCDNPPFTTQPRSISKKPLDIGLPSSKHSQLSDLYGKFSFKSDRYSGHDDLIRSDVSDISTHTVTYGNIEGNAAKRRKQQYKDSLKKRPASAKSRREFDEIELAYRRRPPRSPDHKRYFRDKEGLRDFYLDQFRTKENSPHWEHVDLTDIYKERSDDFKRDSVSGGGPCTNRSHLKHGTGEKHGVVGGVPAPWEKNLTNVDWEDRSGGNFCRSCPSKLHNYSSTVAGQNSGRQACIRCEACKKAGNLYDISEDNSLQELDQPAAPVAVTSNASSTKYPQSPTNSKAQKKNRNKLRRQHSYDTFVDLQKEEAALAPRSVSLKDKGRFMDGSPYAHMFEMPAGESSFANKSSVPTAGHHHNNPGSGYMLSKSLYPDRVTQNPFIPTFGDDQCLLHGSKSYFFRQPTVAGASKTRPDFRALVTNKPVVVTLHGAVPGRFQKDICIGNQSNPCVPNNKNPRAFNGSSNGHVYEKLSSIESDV

SMILES | Ki [1] | logP [2] | IC50 [3] | Ki [4] | IC50 [5] | inhibition [6] | inhibition [7] | Kd [8]
COc1ccc2c3c1O[C@H]1C[C@@H](O)C=C[C@@]31CCN(CCCCCCCCCNC13CC4CC(C)(CC(C)(C4)C1)C3)C2 | > 100000 nM | 6.38 | 2.32 nM | 4630 nM | – | – | – | –
COc1ccc2c3c1O[C@H]1C[C@@H](O)C=C[C@@]31CCN(CCCC(=O)NC13CC4CC(C)(CC(C)(C4)C1)C3)C2 | > 100000 nM | – | 55.7 nM | > 10000 nM | – | – | – | –
COc1ccc2c3c1O[C@H]1C[C@@H](O)C=C[C@@]31CCN(CCCCCCNC13CC4CC(C)(CC(C)(C4)C1)C3)C2 [MEMAGAL] | 4600 nM | 4.94 | 1.16 nM | 4600 nM | 0.28 nM | – | – | –
COc1ccc2c3c1O[C@H]1C[C@@H](O)C=C[C@@]31CCN(CCCCCCCCNC13CC4CC(C)(CC(C)(C4)C1)C3)C2 | 2900 nM | 5.9 | 5.36 nM | 4990 nM | – | – | – | –
COc1ccc2c3c1O[C@H]1C[C@@H](O)C=C[C@@]31CCN(CCCNCCCNC13CC4CC(C)(CC(C)(C4)C1)C3)C2 | 3320 nM | – | 168 nM | 5410 nM | – | – | – | –
COc1ccc2c3c1O[C@H]1C[C@@H](O)C=C[C@@]31CCN(CCCCCC(=O)NC13CC4CC(C)(CC(C)(C4)C1)C3)C2 | 9760 nM | – | 11.3 nM | – | 0.37 nM | 33.9% | – | –
COc1ccc2c3c1O[C@H]1C[C@@H](O)C=C[C@@]31CCN(CCCCCCCCN(C)C13CC4CC(C)(CC(C)(C4)C1)C3)C2 | > 100000 nM | – | 0.52 nM | > 10000 nM | – | – | – | –
COc1ccc2c3c1O[C@H]1C[C@@H](O)C=C[C@@]31CCN(CCSCCNC13CC4CC(C)(CC(C)(C4)C1)C3)C2 | > 100000 nM | – | 131 nM | > 10000 nM | – | – | – | –
COc1ccc2c3c1O[C@H]1C[C@@H](O)C=C[C@@]31CCN(CCCCCCN(C)C13CC4CC(C)(CC(C)(C4)C1)C3)C2 | 5250 nM | – | 1.03 nM | > 10000 nM | – | – | – | –
COc1ccc2c3c1O[C@H]1C[C@@H](O)C=C[C@@]31CCN(C)C2 [GALANTAMINE] | > 100000 nM | – | – | > 10000 nM | 747 nM | – | – | –
COc1ccc2c3c1O[C@H]1C[C@@H](O)C=C[C@@]31CCN(CCOCCNC13CC4CC(C)(CC(C)(C4)C1)C3)C2 | > 100000 nM | – | 3920 nM | > 10000 nM | – | – | – | –
CC12CC3CC(C)(C1)CC(N)(C3)C2 [MEMANTINE] | – | – | – | 1160 nM | 718 nM | – | 8.5% | –
COc1ccc2c3c1O[C@H]1C[C@@H](O)C=C[C@@]31CCN(CCCCCNC13CC4CC(C)(CC(C)(C4)C1)C3)C2 | 40900 nM | 4.46 | 4.31 nM | > 10000 nM | – | – | – | –
COc1ccc2c3c1O[C@H]1C[C@@H](O)C=C[C@@]31CCN(CCCCCCCNC13CC4CC(C)(CC(C)(C4)C1)C3)C2 | 11000 nM | 5.42 | 1.79 nM | 10000 nM | 0.21 nM | – | – | –
COc1ccc2c3c1O[C@H]1C[C@@H](O)C=C[C@@]31CCN(CCOCCOCCNC13CC4CC(C)(CC(C)(C4)C1)C3)C2 | > 100000 nM | – | 80.9 nM | > 10000 nM | > 10000 nM | – | – | –
COc1ccc2c3c1O[C@H]1C[C@@H](O)C=C[C@@]31CCN(CCCCCCCN(C)C13CC4CC(C)(CC(C)(C4)C1)C3)C2 | > 100000 nM | – | 1.33 nM | > 10000 nM | – | – | – | –
COc1ccc2c3c1O[C@H]1C[C@@H](O)C=C[C@@]31CCN(CCCCC(=O)NC13CC4CC(C)(CC(C)(C4)C1)C3)C2 | > 100000 nM | – | 369 nM | > 10000 nM | – | – | – | –
CC(C(O)c1ccc(O)cc1)N1CCC(Cc2ccccc2)CC1 (configuration not stated) [IFENPRODIL] | – | – | – | 3080 nM | – | – | – | –
COc1ccc2c3c1O[C@H]1C[C@@H](O)C=C[C@@]31CCN(CCCCNC13CC4CC(C)(CC(C)(C4)C1)C3)C2 | > 100000 nM | 3.98 | 696 nM | 2320 nM | – | – | – | –
C[C@]12N[C@H](Cc3ccccc31)c1ccccc12 [DIZOCILPINE MALEATE] | – | – | – | – | 7.91 nM | – | – | 4 nM
